Experimental data: US5763625A, “Synthesis and use of β-lapachone analogs” (priority 1995, dated 1998)
Where two headings read alike, the source gives them in different places.

How the values were obtained:
[1] = test system: human radioresistant melanoma (U1-Mel) cells; assay: Radiosensitization of X-irradiated confluence-arrested U1-Mel cells (survival)
Text: Another set of confluence-arrested U1-Mel cells were irradiated and plated immediately for survival to prevent repair (i.e., NPT). Survival levels were corrected for loss of plating efficiency due to prolonged confluence-arrest and drug exposures alone.
A set of X-irradiated U1-Mel cells were trypsinized and replaced immediately after radiation to determine the survival of cells not allowed to repair (i.e., NPT).

[2] = Toxicity to unirradiated confluence-arrested U1-Mel cells; details: human
purified human Topo I = target: T1, purified human Topo I (Homo sapiens, UniProt P11387); assay: Topo I inhibition, DNA unwinding assay; assay type: biochemical
T1 sequence (P11387 1-765): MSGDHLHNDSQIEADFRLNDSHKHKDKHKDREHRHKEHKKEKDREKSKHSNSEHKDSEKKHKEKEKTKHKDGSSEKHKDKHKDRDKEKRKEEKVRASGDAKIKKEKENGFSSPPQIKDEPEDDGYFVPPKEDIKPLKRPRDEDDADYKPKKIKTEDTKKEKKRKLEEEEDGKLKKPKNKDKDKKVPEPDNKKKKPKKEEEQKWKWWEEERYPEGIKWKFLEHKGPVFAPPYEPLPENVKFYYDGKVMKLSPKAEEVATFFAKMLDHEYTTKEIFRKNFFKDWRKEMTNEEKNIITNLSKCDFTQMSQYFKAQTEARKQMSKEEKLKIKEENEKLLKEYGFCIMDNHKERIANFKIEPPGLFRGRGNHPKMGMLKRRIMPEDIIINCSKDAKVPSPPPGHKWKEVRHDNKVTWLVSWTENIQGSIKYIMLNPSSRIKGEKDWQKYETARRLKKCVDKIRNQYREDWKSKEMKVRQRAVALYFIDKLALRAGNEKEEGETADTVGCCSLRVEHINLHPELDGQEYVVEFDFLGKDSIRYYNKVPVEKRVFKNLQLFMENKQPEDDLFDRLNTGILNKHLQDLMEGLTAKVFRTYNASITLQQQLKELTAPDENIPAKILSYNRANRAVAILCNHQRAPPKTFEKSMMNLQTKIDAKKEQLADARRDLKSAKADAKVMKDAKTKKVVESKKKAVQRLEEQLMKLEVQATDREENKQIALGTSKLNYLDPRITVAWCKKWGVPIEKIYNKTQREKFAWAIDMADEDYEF

Water solubility = assay type: physicochemical
[3] = test system: Topo I enzyme activity in U1-Mel cells; assay: Down-regulation of Topo I activity in irradiated U1-Mel cells with ADPRT inhibitors; assay type: cell-based, human; details: 5 μM, 1 hour prior to or 4 hours immediately after 400 cGy
in vitro = details: human, u1-mel cells
Rous sarcoma virus = details: Schaffner-Sabba et al., J. Med. Chem 27: 990-994, 1984; cited from earlier work
[4] = Stability in air, water or DMSO; details: solubilized in water or DMSO
[5] = 100 μM, 4 Hr posttreatment after X-rays
[6] = 100 μM, 4 Hr posttreatment, 1% survival
[7] = 100 μM, 4 Hr posttreatment, 10% survival
[8] = 4 μM, 4 Hr posttreatment after X-rays
[9] = 4 μM, 4 Hr posttreatment, 1% survival
[10] = 4 μM, 4 Hr posttreatment, 10% survival
[11] = 10 μM, 4 Hr posttreatment after X-rays
[12] = 10 μM, 4 Hr posttreatment, 1% survival
[13] = 10 μM, 4 Hr posttreatment, 10% survival
[14] = at 10 μM, Table 3 footnote, survival level not stated
[15] = 2 μM, 4 Hr posttreatment after X-rays

## CCC1(O)C(=O)OCc2c1cc1n(c2=O)Cc2cc3cc4c(cc3nc2-1)OCO4 (stereo not shown) [10,11-Methylonedioxy-]
[1]
  DER Values 1%: 1.4 ± 0.1
  DER Values 10%: 1.2 ± 0.2
  Do: 254 ± 5 cGy
  Dq: 345 ± 3 cGy
[2]
  viability at 4 h, 10 µM: 62 ± 7%

## CC[C@@]1(O)C(=O)OCc2c1cc1n(c2=O)Cc2cc3ccccc3nc2-1 [camptothecin]
Purified human Topo I; drug added to the DNA before the enzyme
  estimated Ki, Topo I: 350 nM
[1]
  DER Values 1%: 2.1 ± 0.6
  DER Values 10%: 1.8 ± 0.1
  Do: 162 ± 7 cGy
  Dq: 132 ± 2 cGy
  dose enhancement ratios (DERs): 2.1±0.6
[2]
  viability at 4 h, 4 µM: 54 ± 2%

## CC1(C)OC2=C(CC1O)C(=O)C(=O)c1ccccc12 (stereo not drawn) [3-hydroxy-β-lapachone]
Water solubility
  water solubility: water-soluble

## NC(=O)c1cccc(N)c1 [3-ABA, 3-aminobenzamide]
[3]
  effect on down-regulation of Topo I enzyme activity: prevented the down-regulation

## CCC1(O)C(=O)OCc2c1cc1n(c2=O)Cc2cc3c(NC(=O)CN)cccc3nc2-1 (racemic) [9-Glycinamido-20(RS)-]
[1]; [5]
  Do: 278 ± 6 cGy
  Dq: 352 ± 4 cGy
[1]; [6]
  DER Values 1%: 1.4 ± 0.4
[1]; [7]
  DER Values 10%: 1.1 ± 0.1
[2]
  viability at 4 h, 100 µM: 61 ± 3%

## CC1(C)CCC2=C(O1)c1ccccc1C(=O)C2=O [β-lapachone]
Purified human Topo I; DNA unwinding assay
  estimated Ki, Topo I: 150 nM
In vitro
  viability at 4 h, 4 µM: 79 ± 4%
[1]; [8]
  Do: 154 ± 8 cGy
  Dq: 152 ± 21 cGy
[1]; [9]
  DER Values 1%: 1.4 ± 0.4
[1]; [10]
  DER Values 10%: 1.5 ± 0.3
[1]; at 4 μM, at 10% survival levels
  dose enhancement ratios (DERs): 1.4±0.4
[1]; at 4 μM, Table 3 footnote, survival level not stated
  dose enhancement ratios (DERs): 1.4 ± 0.4
Rous sarcoma virus
  life of Rous sarcoma virus infected chickens: prolongs the life

## C=CCC1CC2=C(OC1(C)C)c1ccccc1C(=O)C2=O (stereo not shown)
Purified human Topo I; DNA unwinding assay
  estimated Ki, Topo I: approximately 100 nM
  lowest concentration inhibiting Topo I (as little as): 10 nM
In vitro
  viability at 4 h, 10 µM: 89 ± 3%
[1]
  effect on lethality of radiation: synergistic enhancement of lethality
  optimal concentration range for enhancing lethality of X-irradiated cells: 10 to 40 µM
[1]; 10 μM for 4 hours prior to radiation
  effect on survival recovery: no affect on survival recovery
[1]; [11]
  Do: 54 ± 2 cGy
  Dq: 56 ± 4 cGy
[1]; [12]
  DER Values 1%: 3.6 ± 0.3
[1]; [13]
  DER Values 10%: 4.2 ± 0.2
[1]; 10 μM, 400 cGy
  optimal exposure time: 4 to 6 h
[1]; 10 μM, added immediately after radiation, at 10% survival levels
  dose enhancement ratios (DERs): 3.6±0.3
[1]; 400 cGy, 10 μM for 4 hours, then drug removed
  reversibility of radiosensitization: did not repair after drug removal
[1]; [14]
  dose enhancement ratios (DERs): 3.6 ± 0.3
[1]; dose not stated
  drug enhanced radiation value (DER value): 3.6
[1]; posttreatment addition
  rank among Topo I-active drugs at increasing sensitivity to X-irradiation: most effective agent
[4]
  time until loss of stability: > 4 days

## CCC1(O)C(=O)OCc2c1cc1n(c2=O)Cc2cc3c(N)cccc3nc2-1 (racemic) [9-Amino-20(RS)-, 9-aminocamptothecin]
In vitro
  viability at 4 h, 10 µM: 67 ± 5%
[1]; [11]
  Do: 109 ± 2 cGy
  Dq: 110 ± 2 cGy
[1]; [12]
  DER Values 1%: 2.9 ± 0.4
[1]; [13]
  DER Values 10%: 2.5 ± 0.3
[1]; [14]
  dose enhancement ratios (DERs): 2.9 ± 0.4

## Cc1cccc2c1CCNC2=O [PD 1]
In vitro
  viability at 5 h, 0.5 µM: 92 ± 1.6%
[1]; 0.5 μM, five hour exposure, 300 min
  survival of X-irradiated U1-Mel cells: 5±0.2%

## CCC1(N)C(=O)OCc2c1cc1n(c2=O)Cc2cc3ccccc3nc2-1 (racemic) [20-Amino-20(RS)-Deoxy(RS)]
In vitro
  viability at 4 h, 10 µM: 64 ± 3%

## CC[C@@]1(O)C(=O)OCc2c1cc1n(c2=O)Cc2cc3c(CN(C)C)c(O)ccc3nc2-1 [Topotecan]
[1]; [15]
  Do: 186 ± 4 cGy
  Dq: 190 ± 6 cGy
[1]; 2 μM, 4 Hr posttreatment, 1% survival
  DER Values 1%: 1.6 ± 0.4
[1]; 2 μM, 4 Hr posttreatment, 10% survival
  DER Values 10%: 1.4 ± 0.6
[1]; [8]
  Do: 132 ± 5 cGy
  Dq: 127 ± 5 cGy
[1]; [9]
  DER Values 1%: 1.7 ± 0.3
[1]; [10]
  DER Values 10%: 1.6 ± 0.2
[1]; [5]
  Do: 113 ± 2 cGy
  Dq: 100 ± 3 cGy
[1]; [6]
  DER Values 1%: 2.7 ± 0.2
[1]; [7]
  DER Values 10%: 2.2 ± 0.2
[1]; [14]
  dose enhancement ratios (DERs): 2.3 ± .02
[2]
  viability at 4 h, 2 µM: 95 ± 3%
  viability at 4 h, 4 µM: 92 ± 4%
  viability at 4 h, 100 µM: 63 ± 7%
